Read-outs that look alike come from different tables or passages of the source.
Experiments:
[1] = system: trigeminal nerve ganglion function; test: Intra-arterial lidocaine in the middle meningeal artery territory in patients with refractory trigeminal neuralgia (blink reflex monitoring, clinical outcome); assay type: in vivo
From the text: Trigeminal neuralgia consists of unilateral, brief/paroxysmal, or continuous pain in one or more divisions of the trigeminal nerve. The pain is secondary to hyperactivity or spontaneous impulse generation within the nerves due to extrinsic compression or intrinsic neural dysfunction. In the experiment, the intra-arterial delivery of medication for modulating trigeminal nerve ganglion function in patients with refractory trigeminal neuralgia was examined. […] Clinical outcome assessment included a 10-point numeric rating, 4-point severity grading, and the pain-free time interval pre- and post-treatment.

[2] = system: patients suffering from severe headaches

CCN(CC)CC(=O)Nc1c(C)cccc1C [lidocaine]
symptoms at follow-up ([1]; all three patients, 1 month later): returned to baseline severity
facial hyperalgesia ([1]; all three patients, all dermatomes): improvement in facial hyperalgesia
pain severity (10-point numeric rating, 4-point severity grading) ([1]; second and third patients): improvement in pain severity on all scales
pain-free interval ([1]; second patient): 5 days
pain-free interval ([1]; third patient): 3 days
self-reported headache intensity (Visual Analog scale) ([2]; first patient, after 5 min of lidocaine injection (40 mg), pre-procedure intensity 10): 5
self-reported headache intensity (Visual Analog scale) ([2]; second patient, after 5 min of lidocaine injection, pre-procedure intensity 7): 4
